The values that follow come from US6867208B2, “Vitronectin receptor antagonists, their preparation and their use” (Hoechst Aktiengesellschaft, priority 1996, dated 2005).

One may read the melting point as the temperature, or range, at which the solid turns liquid. Turning to `N=C(N)NC(=O)CCCn1nc2ccc(C(=O)NCC(NC(=O)OCc3ccccc3)C(=O)O)cn2c1=O` (stereo not shown) [Example 6, 3-[2-(3-Guanidinocarbonyl-1-propyl)-2,3-dihydro-3-oxo-[1,2,4]triazolo[4,3-a]pyridin-6-carbonylamino]-2-[(phenylmethoxy)carbonylamino]propanoic acid], the melting point is 190 °C (dec.).
